Measured values from US9796777B2, “Methods of treating malignant tumors” (Canimguide Therapeutics AB, priority 2007, dated 2017).

Columns and labels:
PBMCs = assay: PHA-induced proliferation of PBMC in the presence of albumin peptides and/or dHSA; format: cell-based, human; conditions: PBMCs from two healthy controls; two PHA concentrations
Description: Venous blood was drawn from healthy volunteers or from cancer patients in glass vacuum tubes with acid dextrose citrate solution A as anti-coagulant (Vacutainer, Becton Dickinson, Franklin Lakes, N.J.). Erythrocytes were removed by sedimentation on 2% dextran T500 solution (Amersham Pharmacia Biotech AB, Uppsala, Sweden) in 0.9% NaCl (this step was omitted for cultures with PHA-stimulation-see below). […] For cell cultures with PHA-stimulation, PBMC were washed in Hank's Balanced Salt Solution (HBSS) with 10% autologous plasma instead of RPMI/2% HSA. […] The cell suspension was stained with Turk's solution and the number of lymphocytes and monocytes in the PBMC preparation were counted in a hemocytometer. PBMCs were suspended in RPMI/2% HSA and the cell concentration adjusted to 5×10^5 lymphocytes/ml.
100 μl of the cell suspension were seeded into round-bottomed microtiter plates (Corning, N.Y., USA) followed by 100 μl of culture medium consisting of RPMI 1640 (Flow Laboratories, Irvine, Scotland) supplemented with 200 IU/ml Penicillin, 200 μg/ml Streptomycin (Flow laboratories) and 20% heat inactivated autologous serum. Phytohemagglutinin (PHA-P, Sigma Chemical Co, St. Louis, Mo.) at a final concentration of 5 or 10 μg/ml was then added.
All culture conditions were set up in triplicate wells. […] Mean values of disintegrations per minute (dpm) of triplicates were used for the calculations.

PBMC [1] = assay: IL-2 induced proliferation of PBMC with albumin peptides in coated and uncoated tissue culture plates; format: cell-based, human
Protocol: A mixture of 1 mg/ml IgG in a solution of 9 mg/ml HSA in RPMI (HSA/IgG) was also prepared. 200 μl of HSA or HSA/IgG were then added to each well of the plate. The plates were incubated at 4° C. for 30 minutes after which the wells were washed twice with 200 μl of RPMI1640. The coated plates were used immediately. […] PBMC, isolated from healthy individuals, were diluted in RPMI/2% HSA and peptides were added directly to the cell suspension at a concentration of 10 μg/ml.

CD25 = assay: Binding of biotinylated IL-2 to CD25-Fc fusion protein on ELISA plates with or without peptide 3028; conditions: CD25-Fc on protein G coated plates
Description: Based on this observation, the effect of peptide 3028 on the binding of IL-2 to CD25 was studied. […] Amazingly, the binding of IL-2 to CD25 was enhanced by peptide 3028, indicating a three-part interaction between IL-2, CD25 and 3028.

PBMC [2] = assay: LPS-induced IL-6 production by PBMC, effect of peptides; format: cell-based, human; conditions: three cancer patients

Chain of CD25 (P01589 22-240 limits assumed): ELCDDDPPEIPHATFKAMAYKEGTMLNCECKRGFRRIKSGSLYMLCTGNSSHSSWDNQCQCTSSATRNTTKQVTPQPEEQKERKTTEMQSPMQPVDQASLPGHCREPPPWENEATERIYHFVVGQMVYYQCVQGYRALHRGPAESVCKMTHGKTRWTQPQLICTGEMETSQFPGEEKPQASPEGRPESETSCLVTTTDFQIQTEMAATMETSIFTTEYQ

Sequence: VFDEFKPLVEEPQNLIK [peptide 3028]
- effect on dHSA modulated PHA stimulated proliferation (PBMCs): inhibited the stimulatory activity of dHSA
- inhibitory effect on IL-2 induced proliferation under modulation of the Fc-receptor cross-linking (PBMC [1]; HSA/IgG coated plates): completely reversed
- effect on IL-2 induced proliferation (PBMC [1]; PBMC from healthy individuals, peptide 5 μg/ml final, 7 days): highly inhibitory
- effect on the binding of IL-2 to CD25 (CD25): enhanced
- effect on LPS induced IL-6 production (PBMC [2]): essentially no effects
